Several values for one entry are separate records, joined by “and”; a condition that tells them apart may be missing. Identical values can stand only once.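 Each compound was tested at five concentrations against cells in 96-well plates for 48 hours. GI50: concentration for 50% inhibition of growth. At the TGI there is no net growth.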
Tests used:
Assay in all cases: NCI-60 cell line screen, 48 h
[1] = test system: OVCAR-5 ovarian
[2] = test system: M14 melanoma
[3] = test system: NCI-H23 lung
[4] = test system: HT29 colon
[5] = test system: KM12 colon
[6] = test system: HL-60(TB) leukemia
[7] = test system: OVCAR-4 ovarian
[8] = test system: SK-MEL-28 melanoma
[9] = test system: A498 renal
[10] = test system: NCI/ADR-RES ovarian

Compound	TGI [1] [µM]	TGI [2] [µM]	TGI [3] [µM]	TGI [4] [µM]	TGI [5] [µM]	TGI [6]	TGI [7] [µM]	TGI [8] [µM]	GI50 [1] [µM]	GI50 [9] [µM]	TGI [9]	GI50 [3] [µM]	GI50 [4]	GI50 [5]	GI50 [6] [µM]	GI50 [7] [µM]	GI50 [8] [µM]	GI50 [10] [µM]	TGI [10] [µM]
COc1cccc(-c2nc(-c3cnccn3)n(Cc3ccccc3)n2)c1	> 100	> 100	> 100	> 100	> 100	> 100 µM	> 100	> 100	–	–	–	–	–	–	–	–	–	–	–
COc1cc([C@@H]2c3cc4c(cc3C[C@H]3COC(=O)[C@@H]32)OCO4)cc(OC)c1OC	> 50	–	3.52	–	> 50	0.00526 µM and 0.0126 µM	> 50	> 50	0.00692	0.0023	0.00969 µM and 0.0642 µM	0.00428	0.00294 µM and 0.00647 µM	0.00389 µM and 0.005 µM	0.00202	21.8	0.00645	0.00917	0.202
O=C1C(C=NCCc2c[nH]c3ccccc23)C(C(F)(F)F)=NN1c1nc2ccccc2s1 (centres undefined)	78.8	> 100	> 100	88	–	47.8 µM	63	> 100	–	–	42.1 µM	–	–	–	–	–	–	–	78
COC(c1ccc(C(C)(C)C)cc1)(c1ccc(C(C)(C)C)cc1)c1cc(C(O)(c2cc(C(OC)(c3ccc(C(C)(C)C)cc3)c3ccc(C(C)(C)C)cc3)c(C)cc2C)c2cc(C(OC)(c3ccc(C(C)(C)C)cc3)c3ccc(C(C)(C)C)cc3)c(C)cc2C)c(C)cc1C	> 100	> 100	> 100	> 100	–	> 100 µM	> 100	> 100	–	–	> 100 µM	–	–	–	–	–	–	–	> 100
C[C@@H]1C[C@H](O)[C@]2(O)O[C@@H]3C[C@@]4(C=O)[C@@H](CC=C5[C@@H]4CC[C@]4(C)[C@@H](C6=CC(=O)OC6)CC[C@]54O)C[C@H]3O[C@@H]2O1	0.492	0.817	0.0207	0.25	0.749	0.062 µM	< 0.0169	–	–	–	0.0627 µM	–	–	–	–	–	–	–	0.215
O=C1N[C@@H]2c3c(csc3Br)C(=O)[C@@H]2O1	> 100	> 100	> 100	> 100	> 100	64.9 µM	–	> 100	–	–	> 100 µM	–	–	–	–	–	–	–	> 100
CC(C)(CO)N1C(=O)c2ccccc2C1(O)c1ccc(Cl)cc1 (centres undefined)	> 100	> 100	> 100	> 100	> 100	> 100 µM	> 100	> 100	–	–	–	–	–	–	–	–	–	–	> 100
C=CCCCC12CCCc3cccc(c31)NC2=O (centres undefined)	43.5	31.1	36.8	–	35.6	48.7 µM	39.8	–	–	–	45.6 µM	–	–	–	–	–	–	–	–
O=c1nc2c(c(-c3cccc(Cl)c3)[nH]1)COC/C2=C\c1cccc(Cl)c1	> 100	> 100	> 100	–	> 100	–	> 100	–	–	–	> 100 µM	–	–	–	–	–	–	–	> 100
COC1C=CC23c4cc5c(cc4C(O)OC2CN(C)C3C1)OCO5 (centres undefined)	39.9	3.15	27.4	–	13.4	3.17 µM	9.77	–	–	–	9.89 µM	–	–	–	–	–	–	–	–
CCOC(=O)C(=O)N1C(C)=C(C(=O)OCC)CC(C(=O)OCC)=C1C	> 100	> 100	> 100	–	> 100	> 100 µM	> 100	> 100	–	–	> 100 µM	–	–	–	–	–	–	–	–
